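Interpolation was linear, between the two tested concentrations surrounding the appropriate level; five concentrations were tested over 48 hours in 96-well plates. At the GI50, growth is halved.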 Activity calls are given as the source filed them. No stated cut-off is given here; in the data, active = GI50 up to about 1.1 µM and inactive = higher.
Legend:
Assay in all cases: growth of human tumour cells (NCI), 48 h
786-0 = system: 786-0
A498 = system: A498
A549 = system: A549
ACHN = system: ACHN
BT-549 = system: BT-549
CAKI-1 = system: CAKI-1
CCRF-CEM = system: CCRF-CEM
COLO 205 = system: COLO 205
DU-145 = system: DU-145
EKVX = system: EKVX
HCT-116 = system: HCT-116
HCT-15 = system: HCT-15
HL-60 = system: HL-60
HOP-62 = system: HOP-62
HOP-92 = system: HOP-92
HT-29 = system: HT-29
Hs-578T = system: Hs-578T
IGROV-1 = system: IGROV-1
K562 = system: K562
KM12 = system: KM12
LOX IMVI = system: LOX IMVI
M14 = system: M14
MDA-MB-231 = system: MDA-MB-231
MDA-MB-435 = system: MDA-MB-435
MDA-N = system: MDA-N
MOLT-4 = system: MOLT-4
Malme-3M = system: Malme-3M
NCI-H226 = system: NCI-H226
NCI-H23 = system: NCI-H23
NCI-H460 = system: NCI-H460
NCI-H522 = system: NCI-H522
NCI/ADR-RES = system: NCI/ADR-RES
OVCAR-3 = system: OVCAR-3
OVCAR-4 = system: OVCAR-4
OVCAR-5 = system: OVCAR-5
OVCAR-8 = system: OVCAR-8
PC-3 = system: PC-3
RPMI-8226 = system: RPMI-8226
RXF 393 = system: RXF 393
SF-268 = system: SF-268
SF-295 = system: SF-295
SF-539 = system: SF-539
SK-MEL-28 = system: SK-MEL-28
SK-MEL-2 = system: SK-MEL-2
SK-MEL-5 = system: SK-MEL-5
SK-OV-3 = system: SK-OV-3
SN12C = system: SN12C
SNB-19 = system: SNB-19
SNB-75 = system: SNB-75
SW-620 = system: SW-620
T47D = system: T47D
TK-10 = system: TK-10
U-251 = system: U-251
UACC-257 = system: UACC-257
UACC-62 = system: UACC-62
UO-31 = system: UO-31
SR = system: SR

Measured: GI50

CC1(C)C=CC(=O)C(O)C(C)(C)C1=O (stereo unspecified)
51.2 µM: HCT-15
inactive: 786-0 96.2 µM | A498 > 100 µM | A549 > 100 µM | ACHN 98.4 µM | BT-549 68.1 µM | CAKI-1 > 100 µM | COLO 205 > 100 µM | DU-145 > 100 µM | EKVX > 100 µM | HCT-116 54.5 µM | HL-60 27.4 µM | HOP-62 53.6 µM | HOP-92 92.7 µM | HT-29 88.3 µM | Hs-578T 28.8 µM | IGROV-1 89.1 µM | K562 30.3 µM | KM12 65.8 µM | LOX IMVI 28.7 µM | M14 > 100 µM | MDA-MB-231 > 100 µM | MDA-MB-435 53.3 µM | MDA-N 52.8 µM | MOLT-4 7.05 µM | Malme-3M 17.5 µM | NCI-H226 > 100 µM | NCI-H23 76.7 µM | NCI-H460 29.7 µM | NCI-H522 19.9 µM | NCI/ADR-RES 72.4 µM | OVCAR-3 29.1 µM | OVCAR-4 > 100 µM | OVCAR-5 > 100 µM | OVCAR-8 59 µM | PC-3 > 100 µM | RPMI-8226 21.3 µM | RXF 393 66.5 µM | SF-268 30.1 µM | SF-295 75.3 µM | SF-539 73.6 µM | SK-MEL-28 > 100 µM | SK-MEL-2 > 100 µM | SK-MEL-5 > 100 µM | SK-OV-3 > 100 µM | SN12C > 100 µM | SNB-19 > 100 µM | SNB-75 38.7 µM | SW-620 77.6 µM | T47D > 100 µM | TK-10 51.5 µM | U-251 > 100 µM | UACC-257 18.8 µM | UACC-62 52.8 µM | UO-31 > 100 µM
active: CCRF-CEM 0.13 µM

Cc1ccc(C(=O)C2C=C(c3ccc(C)cc3)SC3C=CCC32)cc1 (stereo unspecified)
inactive: 786-0 19.5 µM | A498 24.7 µM | A549 22.9 µM | ACHN 20.5 µM | BT-549 18.3 µM | CAKI-1 18.9 µM | CCRF-CEM 13.6 µM | COLO 205 22.1 µM | DU-145 32.3 µM | EKVX 34.8 µM | HCT-116 13.5 µM | HL-60 8.95 µM | HOP-62 20.3 µM | HOP-92 17.8 µM | HT-29 21.4 µM | Hs-578T 26.1 µM | IGROV-1 19.6 µM | K562 27.7 µM | KM12 15 µM | LOX IMVI 18.4 µM | M14 19.6 µM | MDA-MB-231 25.1 µM | MDA-MB-435 14.4 µM | MDA-N 14.8 µM | MOLT-4 12.1 µM | Malme-3M 16.3 µM | NCI-H226 27.2 µM | NCI-H23 24.2 µM | NCI-H460 16.9 µM | NCI-H522 15.3 µM | NCI/ADR-RES 18.5 µM | OVCAR-3 17 µM | OVCAR-4 30.5 µM | OVCAR-5 18.4 µM | OVCAR-8 17 µM | PC-3 18.1 µM | RPMI-8226 16.3 µM | RXF 393 21 µM | SF-295 19.1 µM | SF-539 17.9 µM | SK-MEL-28 17.4 µM | SK-MEL-2 16.1 µM | SK-MEL-5 15.5 µM | SK-OV-3 25.2 µM | SN12C 17.2 µM | SNB-19 30 µM | SR 12.6 µM | SW-620 15.8 µM | T47D 20.5 µM | TK-10 25.3 µM | U-251 17.9 µM | UACC-257 21.7 µM | UACC-62 17.9 µM | UO-31 16.1 µM
21.6 µM: HCT-15
